# From US7521182B2, “Selection system containing non-antibiotic resistance selection marker” (priority 2003, dated 2009)
# How the values were obtained:
# Assay type in all cases: cell-based, E. coli
# JM109ΔaraD = assay: Testing of arabinose sensitivity (M9 medium with glycerol, overnight culture, OD600); details: for JM109ΔaraD OD600: overnight at 37° C.
# Procedure: (§1) The arabinose sensitivity was tested on the produced AG1ΔaraD and JM109ΔaraD strains. One colony of AG1ΔaraD and one colony of JM109ΔaraD were each inoculated into 2 ml LB. The cultures were grown for 8 hours, diluted 1:100 into M9 medium containing 0.2% glycerol, 25 μg/ml kanamycin, 0.01% thiamine (0.05% proline for JM109ΔaraD) and different concentrations of L-arabinose were added in the growth medium. The cultures were grown overnight at 37° C. in shaker incubator and OD600 was measured (Table 1).
# AG1ΔaraD = assay: as above; details: for AG1ΔaraD OD600: overnight at 37° C.
# Procedure: as §1
# [1] = system: strains with intact araD gene; assay: L-arabinose sensitivity in M9 and yeast extract medium (FIG. 19); details: 0,2% and 2% arabinose, overnight at 37° C.
# Procedure: (§2) Additionally the L-arabinose sensitivity was tested in M9 and yeast extract medium with different glucose and arabinose concentrations (0.2% glucose, 0.2% arabinose, 2% arabinose). The cultures were incubated at 37° C. in a shaker incubator overnight. Then the OD600 was measured to quantitate the cell density.
# ΔaraD strains = assay: as above; details: 0,2% and 2% arabinose, overnight at 37° C.
# Procedure: as §2
# [2] = system: AG1ΔaraD, DH5alphaT1 ΔaraD and JM109ΔaraD; assay: Arabinose sensitivity at lower concentrations of L-arabinose (FIG. 18)
# Procedure: as §1
# The arabinose sensitivity was further tested on AG1ΔaraD, DH5alphaT1 ΔaraD and JM109ΔaraD as above but using lower concentrations of L-arabinose.
# [3] = system: host deficient of the araD gene; assay: Amount of arabinose in the growth medium for selection
# From the text: Any growth medium suitable for culturing E. coli cells can be used. For commercial production the growth medium will naturally be optimized in terms of the yield. Examples of suitable growth media are commercially available growth media, such as M9 and LB (available from several manufacturers, such as Fermentas, Lithuania). The amount of arabinose added in the growth medium is not critical but naturally arabinose should be present in an amount that is sufficient for the total culturing period. As low amount as 0.1% has been found sufficient for the selection. Typically arabinose is added to the medium in an amount of about 0.1% to about 2.0%, preferably in an amount of about 0.2% to about 1,0%, most preferably 0.2% to about 0.5%. However the effect of L-arabinose is observed at concentrations as low as 0.01% and L-arabinose can be added up to 5% in the growth medium. In a special embodiment, where L-arabinose is used both as a selecting agent and as a limited carbon source, 0.2% of L-arabinose is a suitable amount to be added into the growth medium.
# [4] = system: DH5alphaT1 ΔaraDΔulaF ΔsgbE; assay: Testing of arabinose sensitivity (M9 medium with 0.5% yeast extract, OD600)
# Procedure: (§3) The arabinose sensitivity was tested on the E. coli DH5alphaT1 ΔaraDΔulaFΔsgbE and AG1ΔaraDΔulaFΔsgbE strains produced and compared to those of E. coli DH5alphaT1ΔaraD and AG1ΔaraD strains. One colony of each strain was inoculated into 2 ml of M9 medium containing 0.5% yeast extract, 25 μg/ml of kanamycin, 0.2% glucose only or 0.2% or 2% L-arabinose, respectively.
# DH5alphaT1 ΔaraD = assay: as above
# Procedure: as §3
# AG1 ΔaraD = assay: as above
# Procedure: as §3
# AG1ΔaraD ΔulaFΔsgbE = assay: as above
# Procedure: as §3
compound,measurement,setting,value
O=C[C@H](O)[C@@H](O)[C@@H](O)CO [L-arabinose],JM109ΔaraD OD600,JM109ΔaraD; 0.1% L-arabinose,0.03
same,JM109ΔaraD OD600,JM109ΔaraD; 0.2% L-arabinose,0.026
same,JM109ΔaraD OD600,JM109ΔaraD; 0.5% L-arabinose,0.020
same,JM109ΔaraD OD600,JM109ΔaraD; 1% L-arabinose,0.025
same,JM109ΔaraD OD600,JM109ΔaraD; 2% L-arabinose,0.021
same,amount of L-arabinose enough to inhibit the growth,JM109ΔaraD; Table 1,0.1%
same,AG1ΔaraD OD600,AG1ΔaraD; 0.1% L-arabinose,0.03
same,AG1ΔaraD OD600,AG1ΔaraD; 0.2% L-arabinose,0.030
same,AG1ΔaraD OD600,AG1ΔaraD; 0.5% L-arabinose,0.030
same,AG1ΔaraD OD600,AG1ΔaraD; 1% L-arabinose,0.024
same,AG1ΔaraD OD600,AG1ΔaraD; 2% L-arabinose,0.017
same,amount of L-arabinose enough to inhibit the growth,AG1ΔaraD; Table 1,0.1%
same,effect on growth of strains with intact araD gene,[1],not inhibited
same,effect on growth of the ΔaraD strains,ΔaraD strains,inhibited the growth
same,amount of L-arabinose enough to inhibit the growth,[2],0.0005%
same,amount of arabinose found sufficient for the selection,[3],0.1%
same,concentration at which the effect of L-arabinose is observed,[3],0.01%
same,OD600 Glc + 0.2% L-arabinose,[4]; 0.2% L-arabinose,0.75
same,OD600 Glc + 2% L-arabinose,[4]; 2% L-arabinose,0.28
same,OD600 Glc + 0.2% L-arabinose,DH5alphaT1 ΔaraD; 0.2% L-arabinose,0.95
same,OD600 Glc + 2% L-arabinose,DH5alphaT1 ΔaraD; 2% L-arabinose,0.35
same,OD600 Glc + 0.2% L-arabinose,AG1 ΔaraD; 0.2% L-arabinose,0.82
same,OD600 Glc + 2% L-arabinose,AG1 ΔaraD; 2% L-arabinose,0.26
same,OD600 Glc + 0.2% L-arabinose,AG1ΔaraD ΔulaFΔsgbE; 0.2% L-arabinose,0.82
same,OD600 Glc + 2% L-arabinose,AG1ΔaraD ΔulaFΔsgbE; 2% L-arabinose,0.35
